From US9637724B2, “Selective binding of biological targets to solid phase ureides” (AGENCY FOR SCIENCE, TECHNOLOGY AND RESEARCH, priority 2012, dated 2017)

Key:
[1] = test system: endotoxin; experiment: Comparison of allantoin and uric acid for removal of endotoxin from human IgG solution; conditions: 1, 2 and 4% (w/v), 13,000 EU/ml, 6.7 mg/mL human IgG, 15 minutes
Experimental: Endotoxin was added to a 6.7 mg/mL solution of human IgG in 5 mM Hepes, 100 mM NaCl, pH 7.0 to a final concentration of 13,000 EU/ml. 1, 2 and 4% (w/v) of either allantoin or uric acid was added to aliquots of this mixture and allowed to mix for 15 minutes at room temperature. As a control, equal amounts of potato starch were added to a separate series. Finally, the reaction mixtures were clarified by centrifugation. Protein and endotoxin concentrations were measured to calculate antibody recovery and endotoxin removal. There was no reduction in endotoxin with the addition of starch. Uric acid produced a 4-fold reduction at all concentrations. Allantoin reduced endotoxin from 5-10-fold across the experiments (low to high). Antibody recovery was greater than 90% throughout. Besides the poorer performance of uric acid, the fact that results were unchanged as a function of the amount of uric acid are puzzling, and highlight allantoin as being a preferable ureide to begin with.

[2] = cited from earlier work
[3] = test system: Bacteriophage M13; experiment: Co-precipitation of bacteriophage M13 from phage cell culture supernatant with allantoin
Experimental: Phage cell culture supernatant was co-precipitated by addition of allantoin at a weight to volume ratio of 7%. pH was about 7.0. Conductivity was 20 mS. The virus was recovered by dissolving the allantoin in 50 mM Hepes, 150 mM NaCl, pH 7.0. Phage recovery was about 70%. Greater than 99% of proteins and small molecule contaminants were eliminated with the supernatant.
Example 1 was repeated at pH values of 5.0, 6.0, and 8.0% allantoin.
Example 1 was repeated at NaCl concentrations corresponding to conductivity values of 40, 60, 80, and 100 mS/cm. These salt concentrations correspond with about 400, 600, 800, and 1000 mM NaCl. […] Optimal co-precipitation occurred at 400 mM NaCl. This was interpreted to reflect suppression of mutual electrostatic repulsion among viral particles with the result of supporting higher packing density of the particles on the ureide surface.
Example 1 was repeated with 3%, 5%, and 10% allantoin. Co-precipitation efficiency, as judged by removal from supernatant, was directly correlated with allantoin concentration. Recovery increased from about 31% to 57% to 91% respectively.
Phage cell culture supernatant was precipitated with 7% allantoin at 400 mM NaCl, pH 6.0. The majority of proteins and small molecule contaminants were eliminated with the supernatant. Recovery was estimated to be in excess of 90%. […]

[4] = test system: Attenuated Dengue virus; experiment: Co-precipitation of attenuated Dengue virus with allantoin; conditions: 7% allantoin, 600 mM NaCl, pH 6.0
Experimental: Attenuated Dengue virus was combined with 7% allantoin at 600 mM NaCl, pH 6.0. The supernatant was removed. The virus was recovered by dissolving the allantoin in 50 mM Hepes, pH 7.0. Recovery was estimated by immunoassay to be 70-80%.

[5] = test system: minute virus of mice; experiment: Co-precipitation of minute virus of mice, infectivity testing of supernatant; conditions: 10% allantoin, physiological conditions, 10^10 particles per mL
Excerpt: A viral culture containing 10^10 particles per mL of minute virus of mice was coprecipitated under physiological conditions by addition of allantoin in an amount of 10%. Infectivity testing of the supernatant documented removal of 99.9% of the virus.

[6] = test system: murine leukemia virus; experiment: Co-precipitation of murine leukemia virus, infectivity testing of supernatant; conditions: 10% allantoin, physiological conditions, 10^10 particles per mL
Excerpt: A viral culture containing 10^10 particles per mL of murine leukemia virus was coprecipitated under physiological conditions by addition of allantoin in an amount of 10%. Infectivity testing of the supernatant documented removal of 99.9% of the virus.

[7] = test system: endotoxin; experiment: Endotoxin reduction from an ovalbumin solution; conditions: start about 50 EU/mL
Experimental: A sample of ovalbumin in 50 mM phosphate, 100 mM NaCl, pH 7.2, contaminated with about 50 EU/mL of endotoxin, was saturated with 3% allantoin, incubated for 15 minutes, following which the precipitate was removed by membrane filtration. Endotoxin content of the supernatant was reduced by more than 95%, to less than 2 EU per mL. The experiment was repeated with 10% allantoin.

[8] = test system: endotoxin; experiment: Antibody recovery and endotoxin reduction from an IgG-endotoxin mixture
Experimental: Endotoxin was added to 1 mg/mL human IgG in 5 mM HEPES 100 mM NaCl pH 7.0 to 22,000 EU/ml. 2% (w/v) allantoin were added to aliquots of this mixture and allowed to mix for 15 minutes at room temperature. The suspension was clarified by centrifugation. Protein and endotoxin concentrations were measured to calculate antibody recovery and endotoxin removal. 2% (w/v) allantoin reduced endotoxin twofold. Antibody recovery was unaffected by the amount of allantoin. In a subsequent series of experiments, the amount of allantoin was increased in increments, up to 10%. Antibody recovery diminished gradually to about 93% at 10% allantoin, while endotoxin removal efficiency increased to about 99%. These experiments illustrate that the use of excessive amounts of allantoin can result in a loss of some proteins. In such cases, the person of skill in the art can make an informed decision as to the most productive balance of endotoxin removal versus protein recovery, and adjust the availability of the solid phase ureide accordingly. Additional experiments with proteins ranging in size from about 12 kDa to 1 MDa indicated a definite trend whereby the loss of protein increases with increasing protein size.

[9] = Allantoin plus ethacridine treatment of IgG cell culture harvest, then TREN / T-butyl column; conditions: 1% allantoin with 0.01% ethacridine
Experimental: Cell-containing mammalian cell culture harvest containing a monoclonal IgG was treated by allantoin affinity with 1% allantoin in combination with 0.01% ethacridine. The sample, at a pH of about 7.2 and a conductivity of about 13.5 mS, these conditions corresponding with so-called physiological conditions, was passed over a column packed chromatography media including equal amounts of the metal affinity ligand TREN (BioWorks TREN hi-sub) and a hydrophobic ligands (Macroprep T-butyl). Antibody recovery following the previous steps was 99%. DNA was reduced by 3.5 logs, and virus was reduced by 4-5 logs. In addition, the treated sample was sparking clear, with a turbidity of about 2.0 NTU, indicating near-total removal of particulates.
The form or example 15 was followed except increasing the amount of allantoin over the course of a series of experiments, including 2%, 4%, and 8%. Antibody recovery decreased in a roughly linear fashion in inverse proportion to the amount of allantoin. Whereas recovery at 1% (example 15) was 99%, recovery at 8% was about 87%.
IgG processed as described in examples 15 and 16 was analyzed by size exclusion chromatography. […] Where aggregate content following example 15 was about 5%, it was reduced to about 1.3% at 8% allantoin. Aggregate content of membrane clarified cell harvest lacking allantoin was about 19%. […]

[10] = Cell culture harvest treated with allantoin and ethacridine, then iminodiacetic acid / TREN / butyl particle assembly; conditions: 1% allantoin, 0.025% ethacridine
Experimental: 1 L of cell culture harvest was treated by addition of 1% allantoin and 0.025% ethacridine and incubated stirring for 15 minutes, after which the cells and other particulates were removed by centrifugation. The supernatant was passed through an assembly containing equal proportions of styrene divinylbenzene particles substituted with iminodiacetic acid, agarose particles substituted with TREN, and acrylate particles substituted with butyl residues, with a combined volume of 50 mL, dimensions of 2.6×10 cm, and a flow rate of 25 mL/min. Initial aggregate content of greater than 12% was reduced to less than 0.1%. Excess ethacridine was removed. Host protein contamination was reduced 60%. DNA, as measured by qPCR was reduced by 6 logs. Antibody recovery was 99%.

[11] = test system: purified DNA from salmon sperm; experiment: Treatment of purified DNA with allantoin; conditions: antibody-containing protein preparations, previous examples
Experimental: A 1 mg/mL preparation of purified DNA from salmon sperm was treated with 5% allantoin. More than 95% of the DNA remained soluble in the supernatant. This highlights the utility of separating virus or endotoxin contaminants from DNA preparations, such as plasmid preparations, which is otherwise extremely difficult because all three bind strongly to electropositive surfaces such as anion exchangers. […] The apparent discrepancy appears to be resolved by allantoin having little or no inherent affinity for DNA, but a very high affinity for DNA associated with other molecule, especially including DNA-compaction proteins or other compound associations of DNA with chromosomal substructures particularly including nucleosomes and their prokaryotic analogues. This further highlights the point that applications to purification of polynucleotides will likely benefit in particular from being conducted at high salt concentrations and/or the presence of organic modulators that discourage nonspecific formation of polynucleotide complexes with contaminants.

[12] = test system: murine leukemia virus; experiment: Enhancement of virus inactivation at low pH, virus infectivity; conditions: pH 4 plus 10% allantoin
Experimental: A cell culture supernatant containing about 10^10 particles of murine leukemia virus per mL was split into 10 aliquots. Half of the aliquots were treated by reduction of pH to 4 for the purpose of inactivating the virus. The other half was treated by the same reduction or pH plus the addition of 10% allantoin. Aliquots representing treatment at 1, 5, 10, 15, and 60 minutes were evaluated for virus infectivity. At 1 minute, inactivation absent allantoin was 1.2 logs versus 2.4 logs with allantoin. At 5 minutes, inactivation absent allantoin was 3.2 logs versus 4.5 logs with allantoin. At 10 minutes, inactivation absent allantoin was 4.3 logs versus 5.4 logs with allantoin. At 15 minutes, inactivation absent allantoin was 5.1 logs versus 5.6 logs with allantoin. At 60 minutes, inactivation absent allantoin was 5.4 logs versus 5.6 logs with allantoin. Since the sensitivity of the infectivity assay is about 5.5 logs, it is likely that the allantoin inclusion increases the level of inactivation at all time points, in addition to accelerating inactivation. It will be apparent to the person of skill in the art that combination of allantoin with other virus inactivation methods will likely have a similar enhancing effect.

[13] = test system: endotoxin; experiment: Endotoxin removal during purification of a DNA plasmid from E. coli lysate; conditions: 10% allantoin, 15 minutes
Experimental: Powdered allantoin was added to a final concentration of 10% in a filtered E. coli lysate containing a DNA plasmid. The mixture was stirred for 15 minutes then the solid allantoin was removed by microfiltration. 96.7% of the endotoxin was removed with the allantoin. 80% of the DNA plasmid was recovered in the filtrate. […] From the results given in the previous Examples, it will be apparent to the person of ordinary skill, that in the case of plasmids produced in mammalian cells, allantoin treatment will offer the additional benefit of virus removal.

In the case of `O=c1[nH]c(=O)c2[nH]c(=O)[nH]c2[nH]1` [uric acid], the reduction in endotoxin [1] is reported as 4 fold.
For `O=C1CNC(=O)N1` [hydantoin], the “solubility relative to allantoin” value ([2]; times more soluble than allantoin) is given as “roughly 10 times”.
For `NC(=O)NC1NC(=O)NC1=O` (stereo not drawn) [allantoin], the “virus eliminated in the precipitate” value ([3]; 5% allantoin, pH about 7.0, about 15 mS) was “About 60%”, the “proteins and small molecule contaminants eliminated with the supernatant” value ([3]; 7% allantoin, pH about 7.0, 20 mS) was “Greater than 99%” and the “Host protein contamination reduced by” value [4] was 99.3%. The “removal of the virus (infectivity testing of supernatant)” value [5] was 99.9%, the “removal of the virus (infectivity testing of supernatant)” value [6] was 99.9% and the “Endotoxin content of the supernatant reduced by” value ([7]; 3% allantoin, 15 minutes) was “more than 95%”. The “Endotoxin reduced by” value ([7]; 10% allantoin) was “more than 99.5%”, the endotoxin reduction ([8]; 2% (w/v) allantoin, 22,000 EU/ml, 1 mg/mL human IgG, 15 minutes) was “twofold” and the endotoxin removal efficiency ([8]; 10% allantoin) was “about 99%”. For the same compound, the reduction in endotoxin [1] was 5-10 fold, the “DNA reduced by” value [9] was 3.5 logs and the “virus reduced by” value [9] was 4-5 logs. The “DNA as measured by qPCR reduced by” value [10] was 6 logs, the “Host protein contamination reduced” value [10] was 60% and the “DNA levels reduced by” value [11] was 98 to 99%. For the same compound, the virus inactivation ([12]; 1 minute) was 2.4 logs, the virus inactivation ([12]; 5 minutes) was 4.5 logs and the virus inactivation ([12]; 10 minutes) was 5.4 logs. The virus inactivation ([12]; 15 minutes) was 5.6 logs, the virus inactivation ([12]; 60 minutes) was 5.6 logs and the “endotoxin removed with the allantoin” value [13] was 96.7%. The saturation concentration ([2]; aqueous solutions) was “about 36 mM”.
